Article doi:10.1101/695973v1 (biorxiv, 2019)
Like-named read-outs stand apart in the source and are kept apart here.

Experiments:
[1] = system: β-lactamase Mm3; details: 20 mM sodium phosphate, 0.2 M NaCl, pH 7.4, 30°C; Hill equation, nH 2.36
[2] = system: β-lactamase Mm3; test: spectrophotometric hydrolysis at […] nm, initial rates, Michaelis-Menten fit; format: biochemical, uncultured bacterium; details: 20 mM sodium phosphate, 0.2 M NaCl, pH 7.4, 30°C

Row | Km [1] | Km [2] | SMILES
1 | 271 ± 16.4 µM | – | CC1(C)S[C@@H]2[C@H](NC(=O)[C@H](N)c3ccccc3)C(=O)N2[C@H]1C(=O)O [ampicillin]
2 | – | 400 ± 42.7 µM | CC1(C)S[C@@H]2[C@H](NC(=O)C(C(=O)O)c3ccccc3)C(=O)N2[C@H]1C(=O)O (some centres unmarked) [carbenicillin]
